From patent US8884013B2, “Polymorphs of Dasatinib, preparation methods and pharmaceutical compositions thereof” (Nan Jing Cavendish Bio-Engineering Technology Co., Ltd., priority 2010, dated 2014)

Experiments:
Format in all cases: physicochemical
[1] = High temperature test (60° C.); conditions: for Change of appearance in high temperature test (in words) / Change of content in high temperature test (in words): summary of 10-day test
Text: The conditions and methods of related substance test involved in this invention was in accordance with HPLC (Appendix VD of Chinese Pharmacopoeia, Vol. II, (2005)).
Chromatographic conditions and system applicability:
(§1) octadecylsilane bonded silica as the filler; 0.05 mol/L of potassium dihydrogen phosphate (adjusted to pH 2.5 by phosphoric acid)-methanol (45:55) as the mobile phase; detection wavelength was 230 nm; the number of theoretical plates should be not less than 2000, calculated according to the peak area of Dasatinib. The resolution of the peak of Dasatinib from the peaks of adjacent impurities should meet requirements.
Test Method: the sample was weight and dissolved into mobile phase to be the solution containing 0.5 mg per mL, and 20 μL of this solution was taken and injected into liquid chromatography. Chromatogram was recorded until it is 6 times as the retention time of the main peak.
2.2 High Temperature Test
The raw material of Polymorph I of Dasatinib monohydrate was put into a clean sealed glass bottle and then put in thermostatic drying chamber at 60° C. Sample was tested at the 5th and 10th day respectively and the results were contrasted with that of the Day 0. Results were listed in Tab. 3.
The raw material of Polymorph II of Dasatinib was put into a clean sealed glass bottle and then put in thermostatic drying chamber at 60° C. Sample was tested at the 5th and 10th day respectively and the results were contrasted with that of the Day 0. Results were listed in Tab. 8.

[2] = High humidity test (room temperature, 75 ± 5% relative humidity); conditions: for Hydroscopic property: high humidity test; for Appearance / Content / Weight gain of moisture absorption: room temperature, 75 ± 5% relative humidity; for Change of appearance in high humidity test (in words) / Change of content in high humidity test (in words): summary of 10-day test
Procedure: (§2) The raw material of Polymorph I of Dasatinib monohydrate was distributed homogeneously in open petri dish with thickness of the raw material not more than 5 mm and put into thermostatic and humidostatic incubator at room temperature (about 25° C.) and 75±5% relative humidity. Sample was tested at the 5th and 10th day respectively and the results were contrasted with that of the Day 0. Results were listed in Tab. 4.
as §2, with “II” for “I”, “Dasatinib” for “Dasatinib monohydrate”, “9.” for “4.”

[3] = Comparative test on stability: destruction experiment, related substances by HPLC
Procedure: The methods of destruction experiment of the Polymorph I and II of this invention (hereinafter referred to as ‘Polymorph I’ and ‘Polymorph II’) contrasting with the Polymorph A of Dasatinib prepared by the method in CN200580011916.6 (hereinafter referred to as ‘916.6 Polymorph A’) and results of stability are followed:
Oxidation destruction: 50 mg of sample weighted accurately was added into measuring flask of 100 mL, and 10 mL 30% H2O2 was added. After standing at room temperature for 2 hour, the mixture was diluted with mobile phase to scale and shook to be homogeneous, and determined by HPLC.
(§3) Acid destruction: 50 mg of sample weighted accurately was added into measuring flask of 100 mL, and 10 mL 1 mol/L HCl solution was added. After standing at 40° C. for 1 hour, an equal amount of 1 mol/L NaOH solution was added for neutralization. Then the mixture was diluted with mobile phase to scale and shook to be homogeneous, and determined by HPLC.
as §3, with “Alkali” for “Acid”, “NaOH” for “HCl”, “HCl” for “NaOH”
Illumination destruction: 50 mg of sample weighted accurately was added into measuring flask of 100 mL, dissolved and diluted with mobile phase to be the solution containing 0.5 mg Dasatinib per milliliter. After standing under illumination of 4000 lx for 6 hour, the mixture was determined by HPLC.
High temperature destruction: 50 mg of sample weighted accurately was added into measuring flask of 100 mL, dissolved and diluted with mobile phase to be the solution containing 0.5 mg Dasatinib per milliliter. After standing in homothermal water bath of 60° C. for 4 hour, the mixture was cooled and then determined by HPLC.
Related Substances Determination
as §1, with “HPLC conditions and system applicability: octadecylsilane” for “octadecylsilane”, “acid, 0.2% triethylamine)-methanol” for “acid)-methanol”, “peak” for “peak area”
Determination method: sample was dissolved in mobile phase to be the solution containing 0.5 mg per milliliter. 20 μL of such solution was injected into liquid chromatograph, and chromatogram was recorded until the sixfold retention time of major component peak. If there were impurities peaks in the chromatogram of sample solution, total impurities and any single impurity were calculated by normalization method on the basis of peak area.

[4] = 1 mol/L acid destruction (HCl, 40° C., 1 hour)
[5] = 1 mol/L alkali destruction (NaOH, 40° C., 1 hour)
[6] = high temperature destruction (60° C. water bath, 4 hour, in solution)
[7] = illumination destruction (4000 lx, 6 hour, in solution)
[8] = oxidation destruction (30% H2O2, room temperature, 2 hour)

Cc1nc(Nc2ncc(C(=O)Nc3c(C)cccc3Cl)s2)cc(N2CCN(CCO)CC2)n1 [Polymorph I, N-(2-chloro-6-methylphenyl)-2-[[6-[4-(2-hydroxyethyl)-1-piperazinyl]-2-methyl-4-pyrimidyl]amino]-5-thiazolformamide]
Appearance ([1]; day 0): white powder | Content ([1]; day 0): 99.8% | Related substance ([1]; day 0): 0.06% | Appearance ([1]; day 5): white powder | Content ([1]; day 5): 99.7% | Related substance ([1]; day 5): 0.09% | Appearance ([1]; day 10): white powder | Content ([1]; day 10): 99.5% | Related substance ([1]; day 10): 0.12% | Change of appearance in high temperature test (in words) [1]: few obvious change | Change of content in high temperature test (in words) [1]: went down marginally | Hydroscopic property [2]: lower | Appearance ([2]; day 0): white powder | Content ([2]; day 0): 99.7% | Weight gain of moisture absorption ([2]; day 0): 3.57% | Appearance ([2]; day 5): white powder | Content ([2]; day 5): 99.6% | Weight gain of moisture absorption ([2]; day 5): 3.73% | Appearance ([2]; day 10): white powder | Content ([2]; day 10): 99.7% | Weight gain of moisture absorption ([2]; day 10): 3.76% | Change of appearance in high humidity test (in words) [2]: no obvious change | Change of content in high humidity test (in words) [2]: no obvious change | Impurity tR4.102 ([3]; 1 mol/L acid destruction): 0.02% | Impurity tR4.987 ([3]; 1 mol/L acid destruction): 0.01% | Impurity tR5.603 ([3]; 1 mol/L acid destruction): 0.02% | Total impurities [3, 4]: 0.06% | Impurity tR4.130 ([3]; 1 mol/L alkali destruction): 0.02% | Impurity tR5.089 ([3]; 1 mol/L alkali destruction): 0.01% | Impurity tR5.501 ([3]; 1 mol/L alkali destruction): 0.02% | Total impurities [3, 5]: 0.08% | Impurity tR4.113 ([3]; before destruction): 0.02% | Impurity tR5.037 ([3]; before destruction): 0.01% | Impurity tR5.535 ([3]; before destruction): 0.03% | Total impurities ([3]; before destruction): 0.07% | Impurity tR3.569 ([3]; high temperature destruction): 0.01% | Impurity tR4.120 ([3]; high temperature destruction): 0.02% | Impurity tR5.088 ([3]; high temperature destruction): 0.01% | Impurity tR5.520 ([3]; high temperature destruction): 0.02% | Total impurities [3, 6]: 0.05% | Impurity tR2.199 ([3]; illumination destruction): 0.04% | Impurity tR2.527 ([3]; illumination destruction): 0.06% | Impurity tR2.911 ([3]; illumination destruction): 0.33% | Impurity tR3.734 ([3]; illumination destruction): 0.11% | Impurity tR4.119 ([3]; illumination destruction): 0.04% | Impurity tR4.585 ([3]; illumination destruction): 0.08% | Impurity tR5.089 ([3]; illumination destruction): 0.03% | Impurity tR5.502 ([3]; illumination destruction): 0.14% | Impurity tR5.996 ([3]; illumination destruction): 0.08% | Impurity tR10.096 ([3]; illumination destruction): 0.66% | Total impurities [3, 7]: 1.28% | Impurity tR3.719 ([3]; oxidation destruction): 0.06% | Impurity tR4.108 ([3]; oxidation destruction): 0.02% | Impurity tR4.568 ([3]; oxidation destruction): 0.04% | Impurity tR5.090 ([3]; oxidation destruction): 0.01% | Impurity tR5.508 ([3]; oxidation destruction): 0.06% | Impurity tR6.467 ([3]; oxidation destruction): 0.05% | Impurity tR9.476 ([3]; oxidation destruction): 1.058% | Total impurities [3, 8]: 1.32%

Cc1nc(Nc2ncc(C(=O)Nc3c(C)cccc3Cl)s2)cc(N2CCN(CCO)CC2)n1 [Polymorph II, N-(2-chloro-6-methylphenyl)-2-[[6-[4-(2-hydroxyethyl)-1-piperazinyl]-2-methyl-4-pyrimidyl]amino]-5-thiazolformamide]
Content ([1]; day 0): 99.8% | Related substance ([1]; day 0): 0.06% | Content ([1]; day 5): 99.7% | Related substance ([1]; day 5): 0.11% | Content ([1]; day 10): 99.4% | Related substance ([1]; day 10): 0.16% | Change of appearance in high temperature test (in words) [1]: few obvious change | Change of content in high temperature test (in words) [1]: few obvious change | Hydroscopic property [2]: lower | Appearance ([2]; day 0): white powder | Content ([2]; day 0): 99.8% | Weight gain of moisture absorption ([2]; day 0): 0.57% | Appearance ([2]; day 5): white powder | Content ([2]; day 5): 99.7% | Weight gain of moisture absorption ([2]; day 5): 3.63% | Appearance ([2]; day 10): white powder | Content ([2]; day 10): 99.8% | Weight gain of moisture absorption ([2]; day 10): 3.72% | Change of appearance in high humidity test (in words) [2]: no obvious change | Change of content in high humidity test (in words) [2]: no obvious change | Impurity tR4.101 ([3]; 1 mol/L acid destruction): 0.01% | Impurity tR4.993 ([3]; 1 mol/L acid destruction): 0.01% | Impurity tR5.604 ([3]; 1 mol/L acid destruction): 0.02% | Total impurities [3, 4]: 0.06% | Impurity tR3.580 ([3]; 1 mol/L alkali destruction): 0.01% | Impurity tR4.131 ([3]; 1 mol/L alkali destruction): 0.02% | Impurity tR5.092 ([3]; 1 mol/L alkali destruction): 0.01% | Impurity tR5.512 ([3]; 1 mol/L alkali destruction): 0.02% | Impurity tR9.424 ([3]; 1 mol/L alkali destruction): 0.01% | Total impurities [3, 5]: 0.08% | Impurity tR4.114 ([3]; before destruction): 0.02% | Impurity tR5.049 ([3]; before destruction): 0.01% | Impurity tR5.473 ([3]; before destruction): 0.02% | Total impurities ([3]; before destruction): 0.06% | Impurity tR3.567 ([3]; high temperature destruction): 0.01% | Impurity tR4.117 ([3]; high temperature destruction): 0.01% | Impurity tR5.085 ([3]; high temperature destruction): 0.01% | Impurity tR5.507 ([3]; high temperature destruction): 0.02% | Total impurities [3, 6]: 0.06% | Impurity tR2.197 ([3]; illumination destruction): 0.05% | Impurity tR2.526 ([3]; illumination destruction): 0.05% | Impurity tR2.910 ([3]; illumination destruction): 0.02% | Impurity tR3.733 ([3]; illumination destruction): 0.11% | Impurity tR4.116 ([3]; illumination destruction): 0.04% | Impurity tR4.582 ([3]; illumination destruction): 0.07% | Impurity tR5.084 ([3]; illumination destruction): 0.02% | Impurity tR5.496 ([3]; illumination destruction): 0.15% | Impurity tR5.990 ([3]; illumination destruction): 0.06% | Impurity tR10.084 ([3]; illumination destruction): 0.78% | Total impurities [3, 7]: 1.36% | Impurity tR4.393 ([3]; oxidation destruction): 0.02% | Impurity tR4.567 ([3]; oxidation destruction): 0.03% | Impurity tR5.090 ([3]; oxidation destruction): 0.01% | Impurity tR5.510 ([3]; oxidation destruction): 0.07% | Impurity tR6.468 ([3]; oxidation destruction): 0.04% | Impurity tR9.486 ([3]; oxidation destruction): 1.00% | Total impurities [3, 8]: 1.19%
